{
  "source": "patent US11236047B2",
  "about": "(ASTEX THERAPEUTICS LIMITED, priority 2017, dated 2022)",
  "data": [
    {"test_system": "SN40R2 cells", "assay": "Protocol B: SN40R2 CellTiter-Glo luminescent cell viability assay", "details": "72 h, read-out: SN40R2 IC50 (μM) (Protocol B)", "units": {"IC50": "µM"}, "description": "Protocol B: SJSA-1 and SN40R2 Assays\n(§1) The CellTiter-Glo® Luminescent Cell Viability Assay is a homogeneous method to determine the number of viable cells in culture based on quantitation of the ATP present, which signals the presence of metabolically active cells. […] 100 μl of CTG reagent (Promega #G7573) was added to all wells and luminescence was measured on the topcount. The EC50 values were determined from a sigmoidal 4 parameter curve fit using XLfit in conjunction with Activity Base (IDBS; Guildford, Surrey, UK).", "values": [
      {"smiles": "CN1CCN(CC(C)(O)c2cc(F)c3c(c2)C(=O)N(Cc2ccc(Cl)cc2S(C)(=O)=O)[C@@]3(OC2CCOC2)c2ccc(Cl)cc2)CC1", "note": "(single isomer, unassigned) [Example 67]", "IC50": 9.4}
    ]},
    {"test_system": "SN40R2 cells", "assay": "Protocol B: SN40R2 CellTiter-Glo luminescent cell viability assay", "details": "read-out: SN40R2 % inhibition at 10", "units": {"inhibition at 10 µM": "%"}, "values": [
      {"smiles": "C=CC(O)(c1cc(F)c2c(c1)C(=O)N(Cc1ccc(C#N)cn1)[C@@]2(O[C@H]1C[C@@H](O)C1)c1ccc(Cl)cc1)c1cnn(C)c1", "note": "(single isomer, unassigned) [Example 361]", "inhibition at 10 µM": 8},
      {"smiles": "CC(=O)N1CCC(C(C)(O)c2cc(F)c3c(c2)C(=O)N(Cc2ncc(Cl)cn2)[C@@]3(O[C@H]2C[C@@H](O)C2)c2ccc(Cl)cc2)CC1", "note": "(single isomer, unassigned) [Example 425]", "inhibition at 10 µM": 7},
      {"smiles": "CO[C@]1(c2ccc(Cl)cc2)c2c(F)cc(C(C)(O)C3CCN(CC(=O)O)CC3)cc2C(=O)N1Cc1ccc(Cl)cn1", "note": "(single isomer, unassigned) [Example 459]", "inhibition at 10 µM": 7},
      {"smiles": "CCC(O)(CN1CCNCC1)c1cc(F)c2c(c1)C(=O)N(Cc1ncc(Cl)cn1)[C@@]2(O[C@H]1CCOC1)c1ccc(Cl)cc1", "note": "(single isomer, unassigned) [Example 524]", "inhibition at 10 µM": 35},
      {"smiles": "CCC(O)(CN1CC[C@@H](O)C1)c1cc(F)c2c(c1)C(=O)N(Cc1ncc(Cl)cn1)[C@@]2(O[C@H]1CCOC1)c1ccc(Cl)cc1", "note": "(single isomer, unassigned) [Example 526]", "inhibition at 10 µM": 9}
    ]},
    {"test_system": "SN40R2 cells", "assay": "Protocol B: SN40R2 CellTiter-Glo luminescent cell viability assay", "details": "read-out: SN40R2 % inhibition at 10, Protocol B, SN40R2, at 10 μM", "units": {"inhibition at 10 µM": "%"}, "values": [
      {"smiles": "CCC(O)(c1cc(F)c2c(c1)C(=O)N(Cc1ncc(C#N)cn1)[C@@]2(O[C@H]1CCOC1)c1ccc(Cl)cc1)c1ccn(C)n1", "note": "(single isomer, unassigned) [Example 489]", "inhibition at 10 µM": -9}
    ]},
    {"test_system": "SN40R2 cells", "assay": "Protocol B: SN40R2 CellTiter-Glo luminescent cell viability assay", "details": "read-out: SN40R2 IC50 (μM) (Protocol B)", "units": {"IC50": "µM"}, "values": [
      {"smiles": "CO[C@]1(c2ccc(Cl)cc2)c2c(F)cc(C(C)(O)C3CCN(c4ncccn4)CC3)cc2C(=O)N1Cc1ccc(Cl)cn1", "note": "(single isomer, unassigned) [Example 286]", "IC50": 12},
      {"smiles": "CN1CCC(C(C)(O)c2cc(F)c3c(c2)C(=O)N(Cc2ccc(Cl)cn2)[C@@]3(OCC2(C(N)=O)CC2)c2ccc(Cl)cc2)CC1", "note": "(single isomer, unassigned) [Example 306]", "IC50": 13}
    ]},
    {"test_system": "SJSA-1 cells", "assay": "Protocol B: SJSA-1 CellTiter-Glo luminescent cell viability assay", "details": "Homo sapiens, SJSA-1, read-out: SJSA1 IC50 (μM) (Protocol B), SJSA-1, Protocol B", "units": {"IC50": "µM"}, "description": "Protocol B: SJSA-1 and SN40R2 Assays\nas §1", "values": [
      {"smiles": "Cn1cc(C(C)(O)c2cc(F)c3c(c2)C(=O)N(Cc2ccc(C#N)cn2)[C@@]3(OCC2(C#N)CC2)c2ccc(Cl)cc2)cn1", "note": "(stereo partly drawn) [Example 211, 6-{[(1R)-1-(4-chlorophenyl)-1-[(1-cyanocyclopropyl)methoxy]-7-fluoro-5-[1-hydroxy-1-(1-methyl-1H-pyrazol-4-yl)ethyl]-3-oxo-2,3-dihydro-1H-isoindol-2-yl]methyl}pyridine-3-carbonitrile]", "IC50": 0.36},
      {"smiles": "Cn1cc(C(C)(O)c2cc(F)c3c(c2)C(=O)N(Cc2ccc(Cl)cn2)[C@@]3(OCCO)c2ccc(Cl)cc2)cn1", "note": "(stereo partly drawn) [Example 213, (3R)-3-(4-chlorophenyl)-2-[(5-chloropyridin-2-yl)methyl]-4-fluoro-6-[1-hydroxy-1-(1-methyl-1H-pyrazol-4-yl)ethyl]-3-(2-hydroxyethoxy)-2,3-dihydro-1H-isoindol-1-one]", "IC50": 0.25},
      {"smiles": "Cn1cc(C(C)(O)c2cc(F)c3c(c2)C(=O)N(Cc2ncc(Cl)cn2)[C@@]3(OCC2(C(N)=O)CC2)c2ccc(Cl)cc2)cn1", "note": "(stereo partly drawn) [Example 214, 1-({[(1R)-1-(4-chlorophenyl)-2-[(5-chloropyrimidin-2-yl)methyl]-7-fluoro-5-[1-hydroxy-1-(1-methyl-1H-pyrazol-4-yl)ethyl]-3-oxo-2,3-dihydro-1H-isoindol-1-yl]oxy}methyl)cyclopropane-1-carboxamide]", "IC50": 0.22},
      {"smiles": "COc1ccc(CN2C(=O)c3cc(C(C)(O)c4cnn(C)c4)cc(F)c3[C@]2(OCC2(C(N)=O)CC2)c2ccc(Cl)cc2)cn1", "note": "(stereo partly drawn) [Example 216, 1-({[(1R)-1-(4-chlorophenyl)-7-fluoro-5-[1-hydroxy-1-(1-methyl-1H-pyrazol-4-yl)ethyl]-2-[(6-methoxypyridin-3-yl)methyl]-3-oxo-2,3-dihydro-1H-isoindol-1-yl]oxy}methyl)cyclopropane-1-carboxamide]", "IC50": 0.28},
      {"smiles": "CC(O)(c1cc(F)c2c(c1)C(=O)N(Cc1ccc(C#N)cn1)[C@@]2(OCC1(C#N)CC1)c1ccc(Cl)cc1)C1CCOCC1", "note": "(stereo partly drawn) [Example 282, 6-{[(1R)-1-(4-chlorophenyl)-1-[(1-cyanocyclopropyl)methoxy]-7-fluoro-5-[1-hydroxy-1-(oxan-4-yl)ethyl]-3-oxo-2,3-dihydro-1H-isoindol-2-yl]methyl}pyridine-3-carbonitrile]", "IC50": 0.061},
      {"smiles": "CC(O)(c1cc(F)c2c(c1)C(=O)N(Cc1ncc(Cl)cn1)[C@@]2(OCC1(C(N)=O)CC1)c1ccc(Cl)cc1)C1CCOCC1", "note": "(stereo partly drawn) [Example 284, 1-({[(1R)-1-(4-chlorophenyl)-2-[(5-chloropyrimidin-2-yl)methyl]-7-fluoro-5-[1-hydroxy-1-(oxan-4-yl)ethyl]-3-oxo-2,3-dihydro-1H-isoindol-1-yl]oxy}methyl)cyclopropane-1-carboxamide]", "IC50": 0.017},
      {"smiles": "CO[C@]1(c2ccc(Cl)cc2)c2c(F)cc(C(C)(O)C3CN(C(=O)CO)C3)cc2C(=O)N1Cc1ccc(Cl)cn1", "note": "(stereo partly drawn) [Example 391, (3R)-3-(4-chlorophenyl)-2-[(5-chloropyridin-2-yl)methyl]-4-fluoro-6-{1-hydroxy-1-[1-(2-hydroxyacetyl)azetidin-3-yl]ethyl}-3-methoxy-2,3-dihydro-1H-isoindol-1-one]", "IC50": 0.66},
      {"smiles": "Cn1cc(C(C)(O)c2cc(F)c3c(c2)C(=O)N(Cc2ccc(Cl)c[n+]2[O-])[C@@]3(OCC2(O)CC2)c2ccc(Cl)cc2)cn1", "note": "(stereo partly drawn) [Example 409, (3R)-2-[(5-chloro-1-oxo-1λ^5-pyridin-2-yl)methyl]-3-(4-chlorophenyl)-4-fluoro-6-[1-hydroxy-1-(1-methyl-1H-pyrazol-4-yl)ethyl]-3-[(1-hydroxycyclopropyl)methoxy]-2,3-dihydro-1H-isoindol-1-one]", "IC50": 0.41},
      {"smiles": "CC(C)(O)c1cc(F)c2c(c1)C(=O)N([C@@H](CO)c1ccc(Cl)cn1)[C@@]2(OCC1(CO)CC1)c1ccc(Cl)cc1", "note": "[Example 418, (3R)-3-(4-Chlorophenyl)-2-[(1R)-1-(5-chloropyridin-2-yl)-2-hydroxyethyl]-4-fluoro-3-{[1-(hydroxymethyl)cyclopropyl]methoxy}-6-(2-hydroxypropan-2-yl)-2,3-dihydro-1H-isoindol-1-one]", "IC50": 0.28}
    ]},
    {"test_system": "SJSA-1 cells", "assay": "Protocol B: SJSA-1 CellTiter-Glo luminescent cell viability assay", "details": "Homo sapiens, SJSA-1, read-out: SJSA1 IC50 (μM), Protocol B, SJSA-1", "units": {"IC50": "µM"}, "values": [
      {"smiles": "CCC(O)(c1cc(F)c2c(c1)C(=O)N(Cc1ccc(Cl)nc1)[C@@]2(OCCO)c1ccc(Cl)cc1)c1cn(C)cn1", "note": "(stereo partly drawn) [Example 367, (3R)-3-(4-chlorophenyl)-2-[(6-chloropyridin-3-yl)methyl]-4-fluoro-6-[1-hydroxy-1-(1-methyl-1H-imidazol-4-yl)propyl]-3-(2-hydroxyethoxy)-2,3-dihydro-1H-isoindol-1-one]", "IC50": 0.11},
      {"smiles": "CO[C@]1(c2ccc(Cl)cc2)c2c(F)cc(C(C)(O)C3CN(C(=O)N(C)C)C3)cc2C(=O)N1Cc1ccc(C#N)cn1", "note": "(stereo partly drawn) [Example 393, 3-{1-[(1R)-1-(4-chlorophenyl)-2-[(5-cyanopyridin-2-yl)methyl]-7-fluoro-1-methoxy-3-oxo-2,3-dihydro-1H-isoindol-5-yl]-1-hydroxyethyl}-N,N-dimethylazetidine-1-carboxamide]", "IC50": 0.79},
      {"smiles": "O=C1c2cc(C(O)C3CCS(=O)(=O)CC3)cc(F)c2[C@](OCC2(O)CC2)(c2ccc(Cl)cc2)N1Cc1ncc(Cl)cn1", "note": "(stereo partly drawn) [Example 400, 4-{[(1R)-1-(4-chlorophenyl)-2-[(5-chloropyrimidin-2-yl)methyl]-7-fluoro-1-[(1-hydroxycyclopropyl)methoxy]-3-oxo-2,3-dihydro-1H-isoindol-5-yl](hydroxy)methyl}-1λ6-thiane-1,1-dione]", "IC50": 1.1}
    ]},
    {"test_system": "SJSA-1 cells", "assay": "Protocol B: SJSA-1 CellTiter-Glo luminescent cell viability assay", "details": "read-out: SJSA1 IC50 (μM) (Protocol B); SJSA-1, Protocol B", "units": {"IC50": "µM"}, "values": [
      {"smiles": "COc1ccc(CN2C(=O)c3cc(C(C)(O)c4cnn(C)c4)cc(F)c3[C@]2(OCC2(CO)CC2)c2ccc(Cl)cc2)cn1", "note": "(stereo partly drawn) [Example 219, (3R)-3-(4-chlorophenyl)-4-fluoro-6-[1-hydroxy-1-(1-methyl-1H-pyrazol-4-yl)ethyl]-3-{[1-(hydroxymethyl)cyclopropyl]methoxy}-2-[(6-methoxypyridin-3-yl)methyl]-2,3-dihydro-1H-isoindol-1-one]", "IC50": 0.11},
      {"smiles": "COc1ccc(CN2C(=O)c3cc(C(C)(O)c4cnn(C)c4)cc(F)c3[C@]2(OCC2(CO)CC2)c2ccc(Cl)cc2)nc1", "note": "(stereo partly drawn) [Example 224, (3R)-3-(4-chlorophenyl)-4-fluoro-6-[1-hydroxy-1-(1-methyl-1H-pyrazol-4-yl)ethyl]-3-{[1-(hydroxymethyl)cyclopropyl]methoxy}-2-[(5-methoxypyridin-2-yl)methyl]-2,3-dihydro-1H-isoindol-1-one]", "IC50": 0.12},
      {"smiles": "CO[C@]1(c2ccc(Cl)cc2)c2c(F)cc(C(C)(O)C3CN(C(C)=O)C3)cc2C(=O)N1Cc1ccc(Cl)cn1", "note": "(stereo partly drawn) [Example 389, (3R)-6-[1-(1-acetylazetidin-3-yl)-1-hydroxyethyl]-3-(4-chlorophenyl)-2-[(5-chloropyridin-2-yl)methyl]-4-fluoro-3-methoxy-2,3-dihydro-1H-isoindol-1-one]", "IC50": 4.2},
      {"smiles": "CO[C@]1(c2ccc(Cl)cc2)c2c(F)cc(C(C)(O)C3CN(C(C)=O)C3)cc2C(=O)N1Cc1ccc(Cl)cn1", "note": "(stereo partly drawn) [Example 390, (3R)-6-[1-(1-acetylazetidin-3-yl)-1-hydroxyethyl]-3-(4-chlorophenyl)-2-[(5-chloropyridin-2-yl)methyl]-4-fluoro-3-methoxy-2,3-dihydro-1H-isoindol-1-one]", "IC50": 0.63}
    ]},
    {"test_system": "SJSA-1 cells", "assay": "Protocol B: SJSA-1 CellTiter-Glo luminescent cell viability assay", "details": "read-out: SJSA1 IC50; Protocol B, SJSA-1", "units": {"IC50": "µM"}, "values": [
      {"smiles": "[2H]C([2H])(O)C1(C([2H])([2H])O[C@]2(c3ccc(Cl)cc3)c3c(F)cc(C(O)(CC)c4cn(C)cn4)cc3C(=O)N2Cc2ccc(C#N)cn2)CC1", "note": "(stereo partly drawn) [Example 440, 6-{[(1R)-1-(4-chlorophenyl)-7-fluoro-1-({1-[hydroxy(^2H2)methyl]cyclopropyl}(^2H2)methoxy)-5-[1-hydroxy-1-(1-methyl-1H-imidazol-4-yl)propyl]-3-oxo-2,3-dihydro-1H-isoindol-2-yl]methyl}pyridine-3-carbonitrile]", "IC50": 1.9},
      {"smiles": "CC(O)(c1cc(F)c2c(c1)C(=O)N(Cc1ncc(Cl)cn1)[C@@]2(O[C@H]1C[C@@H](O)C1)c1ccc(Cl)cc1)[C@H]1CC[C@H](O)CC1", "note": "(stereo partly drawn) [Example 496]", "IC50": 1.8}
    ]}
  ]
}
